Measured values: PMC3242765, “Inhibitors of Alphavirus Entry and Replication Identified with a Stable Chikungunya Replicon Cell Line and Virus-Based Assays” (PLoS ONE, 2011)
Structures can show the parent of a compound that is named as a salt.

Experiments:
CHIKV replicon = assay: microbe, parasite or virus in culture; format: cell-based, Chikungunya virus (CHIKV)

Compound | CHIKV replicon % left (CHIKV replicon) [%] | SFV replication % left (surviving fraction, remaining percentage of SFV replication) (SFV-Rluc) [%] | % left (remaining SFV replication) (SFV-Rluc; Supplementary Table 2, moderately active compounds (25 - 60% remaining), primary screen at 50 µM) [%]
CCN1C(=O)CC(=O)N(CC)C1=S | 89.2 | 75.7 | –
CN(C)c1cccc2c(S(=O)(=O)Cl)cccc12 | 10.4 | 4.6 | –
Cc1c(C)c2c(c(C)c1O)CCC(C)(C(=O)O)O2 (centres unmarked) | 101.5 | 76.9 | –
C=CC[C@]1(O)CC[C@H]2[C@@H]3CCC4=CCCC[C@@H]4[C@H]3CC[C@@]21C | 49.4 | 37.2 | –
CC(C)NCC(O)c1ccc(O)c(O)c1.Cl (centres unmarked) | 99.3 | 112.5 | –
N[C@@H](Cc1ccc(O)c(O)c1)C(=O)O.N[C@@H](Cc1ccc(O)c(O)c1)C(=O)O | 54.8 | 43.6 | –
Cc1ccccc1OCC(O)CO (centres unmarked) | 54.1 | 79.2 | –
CC(C)(CO)[C@@H](O)C(=O)NCCC(=O)[O-].CC(C)(CO)[C@@H](O)C(=O)NCCC(=O)[O-].O.[Ca+2] | 106.1 | 93.1 | –
C[C@H](C(=O)O)c1cccc(C(=O)c2ccccc2)c1.C[C@H](C(=O)O)c1cccc(C(=O)c2ccccc2)c1 | 99.6 | – | –
CC(C)(C)NCC(O)c1ccc(O)c(CO)c1.CC(C)(C)NCC(O)c1ccc(O)c(CO)c1.O=S(=O)(O)O (racemic) [(+/-) Salbutamol sulfate] | 71.9 | 105.0 | –
CC(C)NCC(O)c1ccc(O)c(O)c1.CC(C)NCC(O)c1ccc(O)c(O)c1.O=S(=O)(O)O (racemic) [(+/-)-Isoproterenol hemisulfate salt] | 105.1 | 110.9 | –
CC12CCC(CC1=O)C2(C)C (racemic) [DL-Camphon, Campher (synth.)] | 105.4 | 83.9 | –
O=C1c2c(O)cccc2Cc2cccc(O)c21 [1,8-Dihydroxyanthrone] | 40.9 | 27.2 | –
CCNCC(O)c1ccc(O)cc1 (centres unmarked) [1-(4-Oxyphenyl)-1-oxy-2-ethylamonoethane] | 105.4 | 86.9 | –
CCCCNC(=O)NS(=O)(=O)c1ccc(N)cc1 [1-Butyl-3-sulfanilylurea [carbutamide]] | 67.5 | 83.9 | –
COc1ccccc1-c1cc(=O)c2ccc3ccccc3c2o1 [2'-Methoxy-a-naphthoflavone] | 81.0 | 45.8 | –
O=C(O)c1cccc(O)c1O [2,3-Dihydroxybenzoic acid] | 105.1 | 93.1 | –
O=C(O)c1ccc(O)cc1O [2,4-Dihydroxylbenzoic acid] | 29.5 | 32.1 | –
O=C(O)c1cc(O)ccc1O [2,5-Dihydroxybenzoic acid] | 83.7 | 127.8 | –
Cc1ccc(C)c(O)c1 [2,5-Dimethylphenol] | 100.5 | 84.6 | –

Compound | CHIKV replicon % left (CHIKV replicon) [%] | SFV replication % left (surviving fraction, remaining percentage of SFV replication) (SFV-Rluc) [%] | % left (remaining SFV replication) (SFV-Rluc; Supplementary Table 2, moderately active compounds (25 - 60% remaining), primary screen at 50 µM) [%]
O=C(O)c1c(O)cccc1O [2,6-Dihydroxybenzoic acid] | 62.3 | 118.7 | –
CC(C(=O)O)c1cccc(C(=O)O)c1 (centres unmarked) [2-(3-Carboxyphenyl)propionic acid] | 94.3 | 105.7 | –
Nc1ccc(Cl)cc1C(=O)c1ccccc1F [2-Amino-5-chloro-2'-fluorobenzophenone] | 82.2 | 167.4 | –
CC(=O)c1ccccc1O [2-Hydroxyacetophenone] | 99.4 | 129.7 | –
O=C(O)Cc1ccccc1O [2-Hydroxyphenylacetic acid] | 14.3 | 7.3 | –
COc1cc(C(=O)O)cc(OC)c1OC [3,4,5-Trimethoxybenzoic acid] | 28.8 | 34.0 | –
O=C(O)c1ccc(O)c(O)c1 [3,4-Dihydroxybenzoic acid] | 101.6 | 124.5 | –
O=C(O)c1cc(O)cc(O)c1 [3,5-Dihydroxybenzoic acid] | 87.8 | 6.9 | –
O=c1oc2cc(O)ccc2cc1-c1nc2ccccc2o1 [3-(2-Benzoxazolyl)umbelliferone] | 61.8 | 21.0 | –
CC(=O)CC(c1ccccc1)c1c(O)c2ccccc2oc1=O (centres unmarked) [3-(a-Acetonylbenzyl)-4-hydroxycoumarin] | 57.2 | 79.5 | –
O=C(c1ccccc1)c1cc2c(ccc3ccccc32)oc1=O [3-Benzoylbenzo(F)coumarin] | 68.0 | 39.9 | –
CC(=O)c1cccc(O)c1 [3-Hydroxyacetophenone] | 97.4 | 125.8 | –
O=C(O)Cc1cccc(O)c1 [3-hydroxyphenylacetic acid] | 54.1 | 110.8 | –
CN1C(=O)CN=C(c2ccc(Cl)cc2)c2cc(Cl)ccc21 [4'-Chlorodiazepam] | 105.5 | 64.0 | –
Cc1c(N)c(=O)n(-c2ccccc2)n1C [4-Aminoantipyrine [ampyrone]] | 89.2 | 51.6 | –
O=c1cc(O)c2ccccc2o1 [4-Hydroxycoumarin] | 95.4 | 100.2 | –
O=C(O)Cc1ccc(O)cc1 [4-Hydroxyphenylacetic acid] | 87.2 | 103.6 | –
Cc1ccc(O)c(O)c1 [4-Methyl pyrocatechol] | 98.8 | 111.1 | –
Cc1cc(=O)oc2cc(O)ccc12 [4-Methylumbelliferone] | 105.6 | 90.9 | –
C[C@@]12CCC[C@H]1[C@@H]1CC[C@H]3CCCC[C@]3(C)[C@H]1CC2 [4-a-Androstane] | 85.5 | 53.0 | –

Compound | CHIKV replicon % left (CHIKV replicon) [%] | SFV replication % left (surviving fraction, remaining percentage of SFV replication) (SFV-Rluc) [%] | % left (remaining SFV replication) (SFV-Rluc; Supplementary Table 2, moderately active compounds (25 - 60% remaining), primary screen at 50 µM) [%]
Cc1cc(=O)oc2cc(O)cc(O)c12 [5,7-Dihydroxy-4-methylcoumarin] | 78.1 | 66.7 | –
Cc1cc(=O)oc2cc(O)c(O)cc12 [6,7-Dihydroxy-4-methylcoumarin] | 95.4 | 131.1 | –
O=C(O)c1cc2cc(Br)cc(Br)c2oc1=O [6,8-Dibromocoumarin carboxylic acid] | 100.1 | 67.4 | –
COc1ccc2oc(=O)cc(C)c2c1 [6-Methoxy-4-methylcoumarin] | 85.4 | 66.6 | –
Cc1ccc2oc(=O)ccc2c1 [6-Methylcoumarin] | 106.5 | 83.6 | –
CN(C)CCCN1c2ccccc2Sc2ccc(Cl)cc21 [Chlorpromazine hydrochloride] | 105.4 | – | –
CN1[C@@H]2CC[C@H]1C[C@@H](OC(=O)C(O)c1ccccc1)C2 (some centres unmarked) [Homatropine hydrobromide] | 100.4 | – | –
Cc1ncc(CO)c(CO)c1O.Cl [PC-178] | – | 100.9 | –
COc1ccc(CN(CCN(C)C)c2ccccn2)cc1.O=C(O)/C=C\C(=O)O [PC-179] | – | 73.7 | –
Oc1cccc(O)c1 [PC-181] | – | 67.1 | –
Cc1cc2nc3c(=O)[nH]c(=O)nc-3n(C[C@H](O)[C@H](O)[C@H](O)CO)c2cc1C [PC-182] | – | – | 43.1
O=C1NS(=O)(=O)c2ccccc21.[Na] [PC-183] | – | 105.0 | –
CC(C)(C)NCC(O)c1ccc(O)c(CO)c1.CC(C)(C)NCC(O)c1ccc(O)c(CO)c1.O=S(=O)(O)O (centres unmarked) [PC-185] | – | 105.0 | –
CCC1(c2ccccc2)C(=O)N=C([O-])NC1=O.[Na+] (centres unmarked) [PC-189] | – | 88.1 | –
CC(C)NCC(O)c1ccc(NS(C)(=O)=O)cc1.Cl (centres unmarked) [PC-191] | – | 100.5 | –
N=C(N)NS(=O)(=O)c1ccc(N)cc1 [PC-196] | – | 63.5 | –
Cc1nnc(NS(=O)(=O)c2ccc(N)cc2)s1 [PC-200] | – | 100.4 | –
Cc1nnc(NS(=O)(=O)c2ccc(N)cc2)s1 [PC-203] | – | 89.6 | –
CCCCNc1ccc(C(=O)OCCN(C)C)cc1.Cl [PC-215] | – | 102.8 | –
CC(C)(C)NC[C@H](O)COc1nsnc1N1CCOCC1.O=C(O)/C=C\C(=O)O [PC-225] | – | 129.1 | –
